Measured values from patent US9872874B2 (Cyclacel Limited, priority 2012, dated 2018).

Tests used:
[1] = Phase I study of sequential sapacitabine and seliciclib, Schedule 2: dose escalation, MTD, DLT and adverse events; assay type: in vivo; conditions: Schedule 2: sapacitabine b.i.d. days 1-7, seliciclib b.i.d. days 8-10, 11 days of rest; 27 patients
Method: Phase I Study of Sequential Sapacitabine and Seliciclib in Patients with Advanced Solid Tumors
(§1) At least 3 patients were evaluated per dose level.

[2] = phase I, single agent; cited from earlier work
[3] = test system: colon cancer; conditions: model of colon cancer, compared with gemcitabine or 5-FU; cited from earlier work
[4] = test system: H2AX staining; assay: Skin biopsies to assess DNA damage (H2AX staining) in the Phase I study; assay type: in vivo, patients
Method: as §1

[5] = test system: A549 cells; conditions: twenty-four hour treatment; cited from earlier work

Structure (SMILES): CCCCCCCCCCCCCCCC(=O)Nc1ccn(C2O[C@H](CO)[C@@H](O)[C@@H]2C#N)c(=O)n1 (stereo partly drawn) [sapacitabine, 1-(2-C-cyano-2-dioxy-β-D-arabino-pentofuranosyl)-N^4-palmitoyl cytosine]
- MTD and recommended phase II dose (RP2D) [1]: 50 mg b.i.d.
- dose limiting toxicity [2]: myelosuppression
- tolerability in humans [2]: well tolerated
- increasing survival and preventing spread of colon cancer metastases to the liver [3]: superior to either gemcitabine or 5-FU
- increase in H2AX staining post-sapacitabine ([4]; day 8 vs pre-treatment, n=16, P=0.007): 2.3 fold

Structure (SMILES): CC[C@H](CO)Nc1nc(NCc2ccccc2)c2ncn(C(C)C)c2n1 [seliciclib, 6-benzylamino-2-[(R)-1-ethyl-2-hydroxyethylamino]-9-isopropylpurine]
- MTD and recommended phase II dose (RP2D) [1]: 1200 mg b.i.d.
- further increase in H2AX staining post-seliciclib ([4]; day 11 vs day 8, n=12, P=0.069): 0.58 fold
- expression of key genes involved in HR (BRCA1 and RAD50) and NHEJ (Ku80, DNA-PK and NHEJ1) [5]: significant downregulation
